# Source: patent US20230218639A1, “USE OF OXYGENATED CHOLESTEROL SULFATES FOR TREATING NEUROLOGICAL CONDITIONS, NEURODEGENERATIVE DISEASES, AND ADDICTION” (Durect Corporation, priority 2020, published 2023)
# Values joined by “and” are separate entries in the source; they are usually repeats but may differ in a detail not shown here. Identical values can stand only once. Like-named read-outs stand apart in the source and are kept apart here.
# Legend:
# [1] = rat, in vivo, po, 75 mg/kg
# Method: Plasma concentrations were similar to those determined in the pharmacokinetics phase and were above the lower limit of quantitation.
# Pancreas and liver concentrations ranged from 23,500 ng equiv./g to 28,100 ng equiv./g. Uveal tract and brain concentrations were lowest relative to the other tissues and were approximately 1000 ng equiv./g. Skin, thymus, prostate, and pituitary tissue concentrations were <3000 ng equiv./g. Remaining tissues had concentrations between 3600 ng-equiv./g and 10,700 ng equiv./g. […] As calculated using AUClast, the tissue:plasma ratios were highest for the small intestine (wall, 15.4) followed by the liver and adrenal gland at 6.96 and 6.64, respectively. High liver and small intestine concentrations are consistent with oral administration and biliary (fecal) excretion.
# [2] = design: species or system rats; conditions: Sprague Dawley, rat, in vivo, po, 75 mg/kg
# [3] = system: ^5mCpG in promoter regions, Huh-7 cells; test: Whole genome bisulfite sequencing (WGBS); format: cell-based, human
# Method: (§1) Each sample, 2 μg, was sent to EpigenDx, Inc. (Hopkinton, Mass.) for analysis of global methylation bisulfite sequencing. The same samples, 6 μg, were sent to Novogene Co., Ltd (Tianjin, China) for analysis of whole genome bisulfite sequencing (WGBS). Total RNA was isolated using the Promega SV total RNA isolation system (Madison, Wis.) with DNase treatment. Each sample, 2 μg, was used for the first-strand cDNA synthesis as recommended by the manufacturer (Invitrogen, Carlsbad, Calif.). Real-time RT-PCR was performed using SYBR Green as the indicator on ABI 7500 Fast Real-Time PCR System (Applied Biosystems, Foster City, Calif.). Amplifications of β-actin or GAPDH were used as internal controls. Relative messenger RNA (mRNA) expression was quantified with the comparative cycle threshold (Ct) method using the primer set shown in Table 1.1 and was expressed as 2^−ΔΔCt.
# Each sample, 5.2 μg of genomic DNA spiked with 26 ng lambda DNA, was fragmented by sonication to 200-300 bp with Covaris S220, followed by end repair and adenylation. Cytosine-methylated barcodes were ligated to sonicated DNA per the manufacturer's instructions. These DNA fragments were treated twice with bisulfite using EZ DNA Methylation-Gold™ Kit (Zymo Research) before the resulting single-strand DNA fragments were PCR amplified using KAPA HiFi Hot Start Uracil and Ready Mix (2×). Library concentration was quantified by Qubit® 2.0 Flurometer (Life Technologies, CA, USA) and quantitative PCR, and the insert size was assayed on an Agilent Bioanalyzer 2100 system.
# The library preparations were sequenced on an Illumina Hiseq 2500/4000 or Novaseq platform and 125 bp/150 bp paired-end reads were generated. Image analysis and base calling were performed with Illumina CASAVA pipeline. Trimmomatic (Trimmomatic-0.36) software was used for quality control. Bismark software (version 0.16.3; Krueger F, 2011) was used to perform alignments of bisulfite-treated reads to a reference genome (−×700—dovetail). DSS software (23) was used to identify differentially methylated regions (DMRs). KOBAS software was used to test the statistical enrichment of DMR related genes in the Kyoto Encyclopedia of Genes and Genomes (KEGG) pathways.
# Each sample (6 μg) was used for analysis of the whole genome bisulfite sequencing (WGBS).
# [4] = Plasma pharmacokinetics, single intravenous dose; format: in vivo, Sprague Dawley rats; conditions: single intravenous (bolus) dose 10 mg/kg
# Method: (§2) Nine male Sprague Dawley rats (Group 1) were designated for the pharmacokinetic phase, 3 male Sprague Dawley rats (Group 2) for the excretion mass balance phase, and 7 male Sprague Dawley rats (Group 3) and 9 male Long Evans rats (Group 4) for the tissue distribution phase. All animals received a single intravenous dose of [^14C]-25HC3S at 10 mg/kg and a target radioactivity of 225 μCi/kg. Blood samples were collected from all Group 1 animals at approximately 0.083, 0.25, 0.5, 1, 2, 4, 8, 12, 24, 48, and 72 hours post-dose. Urine and feces were collected from all Group 2 animals periodically through 168 hours post-dose. […] Following blood collection, animals were euthanized by CO2 inhalation and carcasses frozen in a dry ice/hexane bath for processing by quantitative whole body autoradiography. Whole blood, plasma, urine, feces, cage rinse, and cage wash were analyzed for total radioactivity by liquid scintillation counting.
# [5] = system: Huh-7 cells; test: Real-time RT-PCR gene expression; format: cell-based, human; conditions: Huh-7, HG 72 hours; 25HC3S 6.25-50 μM, 1-8 hours
# Method: as §1, with “FIGS. 3A-3D. Expression of key genes related to signaling pathways. […] Key Genes and their targeting genes expression were determined by RT-PCR analysis. […] Each” for “Each”, “[…],” for “EpigenDx,”, “Each sample, 2 μg, was used for the first-strand cDNA synthesis as recommended by the manufacturer (Invitrogen, Carlsbad, Calif.).” left out, “2^-ΔΔCt.” for “2^−ΔΔCt.”
# [6] = Tissue distribution by quantitative whole body autoradiography, intravenous dose; format: in vivo, Sprague Dawley rats; conditions: intravenous 10 mg/kg
# Method: as §2
# [7] = molecular target: DNMT3b (Homo sapiens, UniProt Q9UBC3); test: DNMT3b activity assay (Lambda DNA substrate, ^3H-SAM); format: biochemical; conditions: read-out: IC50, DNMT3b activity
# Method: (§3) For the DNMT1 activity assay, the substrate solution, 0.001 mg/ml Poly(dI-dC):Poly(dI-dC) in 50 mM Tris-HCl, pH 7.5, 50 mM NaCl, 5 mM EDTA, 5 mM DTT, 1 mM PMSF, 5% glycerol, 0.01% Brij35, 1% DMSO was used. For the DNMT3a/3b activity assay, 0.0075 mg/ml Lambda DNA in 50 mM Tris-HCl, pH 7.5, 50 mM NaCl, 5 mM EDTA, 5 mM DTT, 1 mM PMSF, 5% glycerol, 1% DMSO, was used. The indicated DNMT1, DNMT3a, or DNMT3b was added to the appropriate substrate solution and gently mixed. […] The mixtures were first incubated for 15 min, then ^3H-SAM was added to the reaction mixture to initiate the reaction, and the mixture was incubated for 60 min at 30° C. Following incubation, the reaction mixture was finally transferred to filter-paper for detection of radioactivity counts.
# [8] = Excretion mass balance, single intravenous dose; format: in vivo, Sprague Dawley rats; conditions: intravenous 10 mg/kg, over 168 hours
# Method: as §2
# [9] = molecular target: DNMT3a (Homo sapiens, UniProt Q9Y6K1); test: DNMT3a activity assay (Lambda DNA substrate, ^3H-SAM); format: biochemical; conditions: read-out: IC50, DNMT3a activity
# Chain of DNMT3a (Q9Y6K1 whole entry, looked up): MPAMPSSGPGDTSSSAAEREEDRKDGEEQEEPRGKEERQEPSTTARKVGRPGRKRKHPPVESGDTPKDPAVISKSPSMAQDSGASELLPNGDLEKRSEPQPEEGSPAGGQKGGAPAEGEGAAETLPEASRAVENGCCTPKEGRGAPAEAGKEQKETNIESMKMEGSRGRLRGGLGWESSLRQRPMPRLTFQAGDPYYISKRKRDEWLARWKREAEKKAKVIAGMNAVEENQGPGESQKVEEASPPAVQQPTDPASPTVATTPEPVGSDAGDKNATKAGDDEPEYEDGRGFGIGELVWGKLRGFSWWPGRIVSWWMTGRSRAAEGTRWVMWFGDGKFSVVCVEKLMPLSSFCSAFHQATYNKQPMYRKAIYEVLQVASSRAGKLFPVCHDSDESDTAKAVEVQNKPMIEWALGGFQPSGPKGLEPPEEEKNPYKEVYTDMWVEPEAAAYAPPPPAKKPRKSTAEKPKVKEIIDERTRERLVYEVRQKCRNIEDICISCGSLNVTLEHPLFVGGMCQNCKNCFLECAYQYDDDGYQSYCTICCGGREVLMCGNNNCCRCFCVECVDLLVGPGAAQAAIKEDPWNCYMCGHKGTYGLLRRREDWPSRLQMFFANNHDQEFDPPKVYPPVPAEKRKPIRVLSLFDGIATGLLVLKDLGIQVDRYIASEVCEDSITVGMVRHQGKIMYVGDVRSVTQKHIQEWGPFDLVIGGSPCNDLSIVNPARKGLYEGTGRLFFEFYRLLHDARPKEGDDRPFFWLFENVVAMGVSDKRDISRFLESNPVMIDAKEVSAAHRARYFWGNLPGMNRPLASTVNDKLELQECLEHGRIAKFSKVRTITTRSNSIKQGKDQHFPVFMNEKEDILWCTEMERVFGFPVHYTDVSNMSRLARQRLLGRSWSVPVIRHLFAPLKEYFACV
# Method: as §3
# [10] = Metabolite profiling of plasma, urine, feces, intravenous dose; format: in vivo, Sprague Dawley rats; conditions: intravenous 10 mg/kg
# Method: as §2
smiles,measurement,setting,value
"C[C@H](CCCC(C)(C)O)[C@H]1CC[C@H]2[C@@H]3CC=C4C[C@@H](OS(=O)(=O)O)CC[C@]4(C)[C@H]3CC[C@]12C [25HC3S, 5-Cholesten-3β, 25-diol 3-sulfate]",Cmax in small intestine (wall),[1],"424,000 ng equiv./g"
same,Cmax in stomach (wall),[1],"204,000 ng equiv./g"
same,tissue Tmax,[1],≤ 6 hours post-dose
same,tissues in which radioactivity was detected,[1],all tissues except the eye (lens)
same,whole blood AUClast,[1],"127,000 h ng equiv./g"
same,whole blood Cmax,[1],2850 ng equiv/g
same,"dose recovered in urine, feces, and cage rinse",[2],approximately 94.5%
same,recovered radioactivity in feces,[2],94.2%
same,"genes with demethylated ^5mCpG in promoter regions, Calcium pathway",[3]; of 180 total genes,19 genes
same,"genes with demethylated ^5mCpG in promoter regions, cAMP pathway",[3]; of 200 total genes,28 genes
same,"genes with demethylated ^5mCpG in promoter regions, MAPK signaling pathway",[3]; of 257 total genes,23 genes
same,number of KEGG pathways enriched in hypomethylated genes,"[3]; p<0.05, Huh-7, HG 72 hours, 25 μM 25HC3S 4 hours",79 KEGG pathways and 75 KEGG pathways
same,plasma AUClast,[4],"27,900 h*ng-equiv./g"
same,"terminal elimination phase T1/2, plasma",[4]; PK phase,26.6 h
same,decreased expression of FAS,[5],~90%
same,decreased expression of HMGR,[5],~90%
same,increased expression of CREB5,[5],up to 20 fold
same,increased expression of DUSP8,[5],5 fold
same,increased expression of PGC1A,[5],12 fold
same,AUClast in liver,[6],"≤ 364,000 h ng/g"
same,tissues in which radioactivity was detected,[6],all tissues except the eye (lens)
same,whole blood AUClast,[6],"25,200 h*ng-equiv./g"
same,T1/2 in plasma,[6]; QWBA phase,44.3 h
same,T1/2 in whole blood,[6]; QWBA phase,52.2 h
same,IC50,[7],9.05 µM
same,"dose recovered in urine, feces, and cage rinse",[8],approximately 100.2%
same,recovered radioactivity in feces,[8],83.0%
same,IC50,[9],3.03 µM
same,% of dose in feces,[10]; 0 to 48 hours post-dose,2 % of dose
same,share of exposure (AUC) to 25HC3S related radioactivity in plasma,[10]; up to 1 hour post-dose,approximately 54%
